Reference: patent US20250230147A1, “LACTAMS AS CBL-B INHIBITORS” (Genentech, Inc., priority 2021, published 2025)
Where a name gives a salt, the structure may show the parent alone.

Key:
Cbl-b = Cbl-b (Homo sapiens (Human), UniProt Q13191); assay: Cbl-b LCK Ub TR-FRET assay (Cbl-b Lck HTRF); assay type: biochemical
How it was run: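 Biotin-Cbl-b preincubated with compound (10-point 3-fold series) 60 min, then His-LCK with 1 mM ATP (2× mixture) added for 90 min at room temperature. Ubiquitination detected by TR-FRET using HA-ubiquitin/UBE2D2 adduct, anti-HA-D2 and streptavidin-Eu; IC50 normalised to no-LCK and DMSO controls.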

c-Cbl = c-Cbl (Homo sapiens (Human), UniProt P22681); assay: C-Cbl LCK Ub TR-FRET assay (c-cbl Lck HTRF); assay type: biochemical; settings: for (fold-selectivity): C-cbl Lck HTRF IC50 relative to Cbl-b Lck HTRF IC50
Chain of c-Cbl (P22681 47-435): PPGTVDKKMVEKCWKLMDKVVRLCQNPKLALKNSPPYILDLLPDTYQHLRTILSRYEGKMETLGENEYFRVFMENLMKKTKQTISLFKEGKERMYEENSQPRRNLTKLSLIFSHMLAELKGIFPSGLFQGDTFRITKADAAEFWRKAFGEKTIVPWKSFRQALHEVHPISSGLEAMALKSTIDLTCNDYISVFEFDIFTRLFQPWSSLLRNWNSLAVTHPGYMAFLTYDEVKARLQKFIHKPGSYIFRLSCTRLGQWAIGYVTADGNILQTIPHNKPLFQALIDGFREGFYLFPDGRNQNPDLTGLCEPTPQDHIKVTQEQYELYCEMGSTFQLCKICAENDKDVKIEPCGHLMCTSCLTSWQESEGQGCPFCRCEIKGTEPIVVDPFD
How it was run: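 After the ubiquitination reaction, detection mixture was added and plates incubated 20 min at room temperature before reading. IC50 values were calculated with wells lacking LCK as the low control and DMSO as the high control.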

Chain of Cbl-b (Q13191 40-426): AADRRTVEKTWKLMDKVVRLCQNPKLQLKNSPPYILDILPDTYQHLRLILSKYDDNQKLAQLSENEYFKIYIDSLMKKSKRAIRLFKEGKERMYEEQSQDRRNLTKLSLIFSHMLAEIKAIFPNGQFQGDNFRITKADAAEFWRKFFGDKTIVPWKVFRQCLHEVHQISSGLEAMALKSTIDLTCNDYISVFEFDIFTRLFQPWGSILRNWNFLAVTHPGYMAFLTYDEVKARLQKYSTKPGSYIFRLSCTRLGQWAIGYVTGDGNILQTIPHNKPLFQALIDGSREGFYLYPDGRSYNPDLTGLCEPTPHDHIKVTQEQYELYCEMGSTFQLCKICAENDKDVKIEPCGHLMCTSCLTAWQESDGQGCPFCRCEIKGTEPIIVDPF

| IC50 (Cbl-b) [µM] | IC50 (c-Cbl) [µM] | (fold-selectivity) (c-Cbl) | SMILES |
| --- | --- | --- | --- |
| 1.4 | 2.1 | 1.5x | Cc1cccc2c1CN(c1cccc(C3([C@@H](F)c4nncn4C)COC3)c1)C2=O [Compound 208, (R)-2-(3-(3-(fluoro(4-methyl-4H-1,2,4-triazol-3-yl)methyl)oxetan-3-yl)phenyl)-4-methylisoindolin-1-one] |
| 0.17 | 0.31 | 1.8x | Cn1cnnc1[C@@H](F)C1(c2cccc(N3Cc4c(cc(CN5CC6(CCC6)C5)cc4C(F)(F)F)C3=O)c2)COC1 [Compound 166, (S)-6-(2-azaspiro[3.3]heptan-2-ylmethyl)-2-(3-(3-(fluoro(4-methyl-4H-1,2,4-triazol-3-yl)methyl)oxetan-3-yl)phenyl)-4-(trifluoromethyl)isoindolin-1-one] |
| 0.15 | 0.35 | 2.5x | Cn1cnnc1[C@H](F)C1(c2cccc(N3Cc4c(cc(CN5CCC56COC6)cc4C(F)(F)F)C3=O)c2)COC1 [Compound 175, (R)-6-(6-oxa-1-azaspiro[3.3]heptan-1-ylmethyl)-2-(3-(3-(fluoro(4-methyl-4H-1,2,4-triazol-3-yl)methyl)oxetan-3-yl)phenyl)-4-(trifluoromethyl)isoindolin-1-one] |
| 0.29 | 0.77 | 2.7x | Cn1cnnc1[C@H](F)C1(c2cccc(N3Cc4c(I)cccc4C3=O)c2)COC1 [Compound 205, (R)-2-(3-(3-(fluoro(4-methyl-4H-1,2,4-triazol-3-yl)methyl)oxetan-3-yl)phenyl)-4-iodoisoindolin-1-one] |
| 0.026 | 0.027 | (1.0x) | Cn1cnnc1CC1(c2cccc(N3Cc4c(cc(CNC5CC6(COC6)C5)cc4C(F)(F)F)C3=O)c2)CC(F)(F)C1 [Compound 366, 6-((2-oxaspiro[3.3]heptan-6-ylamino)methyl)-2-(3-(3,3-difluoro-1-((4-methyl-4H-1,2,4-triazol-3-yl)methyl)cyclobutyl)phenyl)-4-(trifluoromethyl)isoindolin-1-one] |

The remaining lines, values behind:

| SMILES | IC50 (Cbl-b) [µM] | IC50 (c-Cbl) [µM] | (fold-selectivity) (c-Cbl) |
| --- | --- | --- | --- |
| CCOc1cc(N2Cc3c(cc(CNC4(C)CCC4)cc3C(F)(F)F)C2=O)cc(C2(Cc3nncn3C)COC2)c1 [Compound 473, 2-(3-ethoxy-5-(3-((4-methyl-4H-1,2,4-triazol-3-yl)methyl)oxetan-3-yl)phenyl)-6-(((1-methylcyclobutyl)amino)methyl)-4-(trifluoromethyl)isoindolin-1-one] | 0.015 | 0.017 | (1.2x) |
| CC[C@@H]1CCC[C@H](c2cc3c(c(C(F)(F)F)c2)CN(c2cccc(C4(Cc5nncn5C)CC(F)(F)C4)c2)C3=O)N1 [Compound 274, 2-(3-(3,3-difluoro-1-((4-methyl-4H-1,2,4-triazol-3-yl)methyl)cyclobutyl)phenyl)-6-((2R,6R)-6-ethylpiperidin-2-yl)-4-(trifluoromethyl)isoindolin-1-one] | 0.14 | 0.22 | (1.6x) |
| Cn1cnnc1CC1(c2cc(NC3CCCC3)nc(N3Cc4c(cc(CNC5(C)CCC5)cc4C(F)(F)F)C3=O)c2)COC1 [Compound 298, 2-(6-(cyclopentylamino)-4-(3-((4-methyl-4H-1,2,4-triazol-3-yl)methyl)oxetan-3-yl)pyridin-2-yl)-6-(((1-methylcyclobutyl)amino)methyl)-4-(trifluoromethyl)isoindolin-1-one] | 0.0099 | 0.013 | (1.3x) |
| CC(C)[C@H]1CN(C)CCN1Cc1cc2c(c(C(F)(F)F)c1)CN(c1cc(C3(Cc4nncn4C)COC3)cc(NC3CCCC3)n1)C2=O [Compound 297, (S)-2-(6-(cyclopentylamino)-4-(3-((4-methyl-4H-1,2,4-triazol-3-yl)methyl)oxetan-3-yl)pyridin-2-yl)-6-((2-isopropyl-4-methylpiperazin-1-yl)methyl)-4-(trifluoromethyl)isoindolin-1-one formate] | 0.0091 | 0.008 | – |
